According to article PMC8525948 (Drug Delivery, 2021):
Counter-ions that a name gives are not always drawn.

What was measured:
[1] = Solubility (loading amount) in 1 g of optimal LBSNENP PC90C10P0
[2] = Droplet size, PDI and appearance of nanoemulsions (LBSNENAs) after self-nanoemulsifying; format: physicochemical; details: PC90C10P0 loaded with the named substance at its solubility; 25 °C
Experimental: After self-nanoemulsifying LBSNENPs were placed in double-distilled (DD) water, the average particle size and size distribution of the so-obtained LBSNENAs were measured at a scattering angle of 90° with an N5 submicron particle size analyzer (Beckman Coulter, Brea, CA) at 25 °C, and the intensity autocorrelation of the sample was in a range of 5 × 10^4–10^6. The average diameter and polydispersity index (PDI) of three measurements were reported. […] Each data point is the mean of at least three individual trials.

[3] = In vitro release, USP dissolution apparatus 2, simulated gastric fluid pH 1.2; format: physicochemical; details: for Dissolution from PC90C10P0 in simulated gastric acid solution: within 0.5 h / plateau at 0.5 h, CPT11 40 mg/g, inhibitors 80 mg/g
Experimental: The temperature of the dissolution medium was maintained at 37 ± 0.5 °C. Aliquots of 5 mL of sample were withdrawn for the assay at predetermined time intervals and replaced with the same volume of fresh medium.

[4] = In vivo pharmacokinetic study in rabbits: plasma CPT11
Experimental: Plasma samples were stored at −80 °C before the high-performance liquid chromatographic (HPLC) analysis as described below. PK parameters are presented as the mean and standard deviation (SD) from individual rabbits in each group and were estimated through a noncompartmental analysis. The terminal elimination rate constant (Ke) was estimated from the slope of the log-linear phase of declining plasma concentrations of an […] versus time graph. The half-life (T1/2) was calculated using the following equation: T1/2 = ln2/Ke. The area under the concentration-time curve from beginning to the last time point (AUC0→last) was calculated using the trapezoidal method. Summation of AUC0→last and the concentration at the last measured point divided by Ke yielded AUC0→∞. Clearance (CL) was calculated by dividing the dose by AUC0→∞, and the volume of distribution (V) was determined by dividing CL by Ke. The absolute bioavailability (FAB) and relative bioavailability (FRB) were respectively calculated according to Equations (1) and (2), respectively (1) FAB=[AUC]poDIV/[AUC]IVDpo×100 where [AUC]po and [AUC]IV are the area under the plasma concentration curves (AUCs) after oral and intravenous administration. DIV and Dpo are the doses after […] administration, respectively. (2) FRB=[AUC]ADB/[AUC]BDA×100
where AUC for a LBSNENPs formulation [AUC]A and the AUC for the same drug in solution [AUC]B after oral administration were compared. DB and DA are the doses for solution and LBSNENPs formulation, respectively.
After centrifugation at 13,000 rpm for 30 min at 4 °C, 1.2 mL of ethyl acetate was collected, and then subjected to evaporation under N2 gas at 50 °C. The mobile phase (200 μL) was added to reconstitute the dried residual, vortexed for 5 min, and then centrifuged at 10^4 rpm and 25 °C for 3 min. The supernatant (180 µL) was collected, and 50 µL was injected into the HPLC system for analysis.

[5] = background statement, no reference given; cited from earlier work
[6] = New Zealand white, rabbit, in vivo, iv, 4 mg/kg

Molecule | Solubility (loading amount) in 1 g of PC90C10P0 [1] [mg/g] | Mean droplet size of nanoemulsion after self-nanoemulsifying [2] [nm] | PDI of nanoemulsion after self-nanoemulsifying [2] | Dissolution from PC90C10P0 in simulated gastric acid solution with 1% Tween 80 ([3]; plateau at 0.5 h, 80 mg/g) | Dissolution from PC90C10P0 in simulated gastric acid solution [3] | FAB of CPT11 ([4]; I.V. (4 mg/kg), reference group) [%] | AUC(0-inf) [4, 6] [ng·h/mL] | AUC(0-t) [4, 6] [ng·h/mL] | Cmax [4, 6] [ng/mL] | Times more active than CPT11 [5]
O=c1cc(-c2ccccc2)oc2cc(O)c(O)c(O)c12 [BA, Baicalein] | 80 | 171.0 ± 6.52 | 0.863 ± 0.087 | not observed | appeared to be over saturated |  |  |  |  | 
CCc1c2c(nc3ccc(OC(=O)N4CCC(N5CCCCC5)CC4)cc13)-c1cc3c(c(=O)n1C2)COC(=O)[C@]3(O)CC [CPT11, Irinotecan hydrochloride] | 40 | 157.3 ± 2.08 | 0.665 ± 0.020 |  | 100% | 100 | 287 ± 104 | 287 ± 104 | 341 ± 98.6 | 
CC1(C)[C@@H](O[C@H]2O[C@H](C(=O)O)[C@@H](O)[C@H](O)[C@H]2O[C@@H]2O[C@H](C(=O)O)[C@@H](O)[C@H](O)[C@H]2O)CC[C@]2(C)[C@H]3C(=O)C=C4[C@@H]5C[C@@](C)(C(=O)O)CC[C@]5(C)CC[C@@]4(C)[C@]3(C)CC[C@@H]12 [GA, glycyrrhizic acid] | 200 | 102.1 ± 0.67 | 0.602 ± 0.031 |  | 100% |  |  |  |  | 
CC1(C)[C@@H](O)CC[C@]2(C)[C@H]3C(=O)C=C4[C@@H]5C[C@@](C)(C(=O)O)CC[C@]5(C)CC[C@@]4(C)[C@]3(C)CC[C@@H]12 [GLA, glycyrrhetinic acid] | 80 | 143.5 ± 0.04 | 0.559 ± 0.063 |  | 100% |  |  |  |  | 
CCc1c2c(nc3ccc(O)cc13)-c1cc3c(c(=O)n1C2)COC(=O)[C@]3(O)CC [SN-38] |  |  |  |  |  |  |  |  |  | 100–1000 times
silymarin [SM] | 130 |  |  |  |  |  |  |  |  | 
